{"source": "ChEMBL document CHEMBL3044777", "about": "“Weed control and sweet maize (Zea mays L.) yield as affected by pyroxasulfone dose” (2011)", "format_in_all_cases": "functional", "key": {"[1]": {"test_system": "Digitaria", "test": "Herbicide activity against Digitaria assessed as weed control at 274 g/ha in presence of 2% organic matter on soil"}, "[2]": {"test_system": "Digitaria sanguinalis", "test": "Herbicide activity against Digitaria sanguinalis assessed as weed control at 31.25 g/ha"}, "[3]": {"test_system": "Abutilon theophrasti", "test": "Herbicide activity against Abutilon theophrasti (velvetleaf) assessed as weed control at 31.25 g/ha"}, "[4]": {"test_system": "Echinochloa crus-galli", "test": "Herbicide activity against Echinochloa crus-galli (barnyard grass) assessed as weed control at 31.25 g/ha"}, "[5]": {"test_system": "Amaranthus palmeri", "test": "Herbicide activity against Amaranthus […] (Moq.) Sauer. assessed as weed control at 152 g/ha"}, "[6]": {"test_system": "Amaranthus palmeri", "test": "Herbicide activity against Amaranthus palmeri S.Watson assessed as weed control at 125 g/ha"}, "[7]": {"test_system": "Amaranthus", "test": "Herbicide activity against Amaranthus sp. assessed as weed control at 1000 g/ha"}, "[8]": {"test_system": "Setaria viridis", "test": "Herbicide activity against Setaria viridis (green foxtail) assessed as weed control measured after pre-emergence treatment in southwestern ontario"}, "[9]": {"test_system": "Chenopodium album", "test": "Herbicide activity against Chenopodium album assessed as weed control measured after pre-emergence treatment in southwestern ontario"}, "[10]": {"test_system": "Amaranthus retroflexus", "test": "Herbicide activity against Amaranthus retroflexus assessed as weed control measured after pre-emergence treatment in southwestern ontario"}}}
{"smiles": "Cn1nc(C(F)(F)F)c(CS(=O)(=O)C2=NOC(C)(C)C2)c1OC(F)F", "note": "[PYROXASULFONE]", "values": [{"measurement": "Activity", "setting": "[1]", "value": 90, "unit": "%"}, {"measurement": "Activity", "setting": "[2]", "value": 90, "unit": "%"}, {"measurement": "Activity", "setting": "[3]", "value": 90, "unit": "%"}, {"measurement": "Activity", "setting": "[4]", "value": 90, "unit": "%"}, {"measurement": "Activity", "setting": "[5]", "value": 90, "unit": "%"}, {"measurement": "Activity", "setting": "[6]", "value": 95, "unit": "%"}, {"measurement": "Activity", "setting": "[7]", "value": 90, "unit": "%"}, {"measurement": "I90", "setting": "[8]", "value": 111, "unit": "g/ha"}, {"measurement": "I90", "setting": "[9]", "value": 499, "unit": "g/ha"}, {"measurement": "I90", "setting": "[10]", "value": 93, "unit": "g/ha"}]}
